These results are taken from article PMC7294993 (Science signaling, 2020).

One assay deals with MRCKB (CDC42BPB) (Homo sapiens, UniProt Q9Y5S2). Description: in vitro radioisotope […] kinase assay, 10-dose. The assay is classed as biochemical.
For another assay, the target named is MRCKA (CDC42BPA) (Homo sapiens, UniProt Q5VT25). Description: in vitro radioisotope […] kinase assay, 10-dose. It counts as biochemical.
Chain of MRCKA (CDC42BPA) (Q5VT25 whole entry): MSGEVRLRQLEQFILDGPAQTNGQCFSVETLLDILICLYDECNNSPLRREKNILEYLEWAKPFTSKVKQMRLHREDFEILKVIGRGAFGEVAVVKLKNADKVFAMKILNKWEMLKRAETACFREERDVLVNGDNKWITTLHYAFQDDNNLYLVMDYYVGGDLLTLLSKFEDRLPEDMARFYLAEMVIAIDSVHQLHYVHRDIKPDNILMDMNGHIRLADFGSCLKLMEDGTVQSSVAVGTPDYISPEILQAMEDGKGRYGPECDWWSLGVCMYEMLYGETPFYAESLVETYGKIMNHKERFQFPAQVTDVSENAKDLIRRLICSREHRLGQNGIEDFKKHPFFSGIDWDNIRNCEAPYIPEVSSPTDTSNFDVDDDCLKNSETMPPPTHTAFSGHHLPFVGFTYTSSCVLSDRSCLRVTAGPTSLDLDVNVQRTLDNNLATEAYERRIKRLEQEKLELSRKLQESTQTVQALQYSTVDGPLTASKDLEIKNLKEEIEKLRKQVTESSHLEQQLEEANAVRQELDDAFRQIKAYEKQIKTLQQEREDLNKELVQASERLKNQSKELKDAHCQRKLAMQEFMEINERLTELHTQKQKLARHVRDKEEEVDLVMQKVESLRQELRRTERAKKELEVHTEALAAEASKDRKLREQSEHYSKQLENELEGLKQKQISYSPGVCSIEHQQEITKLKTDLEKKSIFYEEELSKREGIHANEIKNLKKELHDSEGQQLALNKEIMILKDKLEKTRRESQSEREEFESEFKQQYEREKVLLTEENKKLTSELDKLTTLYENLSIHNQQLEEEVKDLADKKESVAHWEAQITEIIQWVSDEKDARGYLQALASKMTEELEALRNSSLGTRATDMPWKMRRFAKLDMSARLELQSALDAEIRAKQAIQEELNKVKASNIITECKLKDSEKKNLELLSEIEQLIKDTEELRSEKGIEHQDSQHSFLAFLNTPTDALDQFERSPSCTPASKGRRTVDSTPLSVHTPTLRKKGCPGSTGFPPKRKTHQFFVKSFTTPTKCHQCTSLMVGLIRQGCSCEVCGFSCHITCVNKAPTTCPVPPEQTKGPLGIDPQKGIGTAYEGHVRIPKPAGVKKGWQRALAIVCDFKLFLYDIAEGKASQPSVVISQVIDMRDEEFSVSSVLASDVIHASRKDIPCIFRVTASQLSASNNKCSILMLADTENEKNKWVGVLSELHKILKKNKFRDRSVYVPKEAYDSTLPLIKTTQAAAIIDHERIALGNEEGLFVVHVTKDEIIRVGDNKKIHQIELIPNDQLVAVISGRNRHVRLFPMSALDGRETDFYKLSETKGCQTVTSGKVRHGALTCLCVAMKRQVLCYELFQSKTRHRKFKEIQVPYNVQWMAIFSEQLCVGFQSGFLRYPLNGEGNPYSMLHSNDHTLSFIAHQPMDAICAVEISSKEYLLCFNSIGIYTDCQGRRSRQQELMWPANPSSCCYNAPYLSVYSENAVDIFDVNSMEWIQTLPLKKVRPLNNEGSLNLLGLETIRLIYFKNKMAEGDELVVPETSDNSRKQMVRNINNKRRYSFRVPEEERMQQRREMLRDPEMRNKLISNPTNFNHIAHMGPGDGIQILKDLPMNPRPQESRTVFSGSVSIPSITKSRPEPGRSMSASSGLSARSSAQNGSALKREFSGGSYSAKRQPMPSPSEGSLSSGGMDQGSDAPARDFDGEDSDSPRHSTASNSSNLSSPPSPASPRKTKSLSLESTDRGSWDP

Chain of MRCKB (CDC42BPB) (Q9Y5S2 whole entry): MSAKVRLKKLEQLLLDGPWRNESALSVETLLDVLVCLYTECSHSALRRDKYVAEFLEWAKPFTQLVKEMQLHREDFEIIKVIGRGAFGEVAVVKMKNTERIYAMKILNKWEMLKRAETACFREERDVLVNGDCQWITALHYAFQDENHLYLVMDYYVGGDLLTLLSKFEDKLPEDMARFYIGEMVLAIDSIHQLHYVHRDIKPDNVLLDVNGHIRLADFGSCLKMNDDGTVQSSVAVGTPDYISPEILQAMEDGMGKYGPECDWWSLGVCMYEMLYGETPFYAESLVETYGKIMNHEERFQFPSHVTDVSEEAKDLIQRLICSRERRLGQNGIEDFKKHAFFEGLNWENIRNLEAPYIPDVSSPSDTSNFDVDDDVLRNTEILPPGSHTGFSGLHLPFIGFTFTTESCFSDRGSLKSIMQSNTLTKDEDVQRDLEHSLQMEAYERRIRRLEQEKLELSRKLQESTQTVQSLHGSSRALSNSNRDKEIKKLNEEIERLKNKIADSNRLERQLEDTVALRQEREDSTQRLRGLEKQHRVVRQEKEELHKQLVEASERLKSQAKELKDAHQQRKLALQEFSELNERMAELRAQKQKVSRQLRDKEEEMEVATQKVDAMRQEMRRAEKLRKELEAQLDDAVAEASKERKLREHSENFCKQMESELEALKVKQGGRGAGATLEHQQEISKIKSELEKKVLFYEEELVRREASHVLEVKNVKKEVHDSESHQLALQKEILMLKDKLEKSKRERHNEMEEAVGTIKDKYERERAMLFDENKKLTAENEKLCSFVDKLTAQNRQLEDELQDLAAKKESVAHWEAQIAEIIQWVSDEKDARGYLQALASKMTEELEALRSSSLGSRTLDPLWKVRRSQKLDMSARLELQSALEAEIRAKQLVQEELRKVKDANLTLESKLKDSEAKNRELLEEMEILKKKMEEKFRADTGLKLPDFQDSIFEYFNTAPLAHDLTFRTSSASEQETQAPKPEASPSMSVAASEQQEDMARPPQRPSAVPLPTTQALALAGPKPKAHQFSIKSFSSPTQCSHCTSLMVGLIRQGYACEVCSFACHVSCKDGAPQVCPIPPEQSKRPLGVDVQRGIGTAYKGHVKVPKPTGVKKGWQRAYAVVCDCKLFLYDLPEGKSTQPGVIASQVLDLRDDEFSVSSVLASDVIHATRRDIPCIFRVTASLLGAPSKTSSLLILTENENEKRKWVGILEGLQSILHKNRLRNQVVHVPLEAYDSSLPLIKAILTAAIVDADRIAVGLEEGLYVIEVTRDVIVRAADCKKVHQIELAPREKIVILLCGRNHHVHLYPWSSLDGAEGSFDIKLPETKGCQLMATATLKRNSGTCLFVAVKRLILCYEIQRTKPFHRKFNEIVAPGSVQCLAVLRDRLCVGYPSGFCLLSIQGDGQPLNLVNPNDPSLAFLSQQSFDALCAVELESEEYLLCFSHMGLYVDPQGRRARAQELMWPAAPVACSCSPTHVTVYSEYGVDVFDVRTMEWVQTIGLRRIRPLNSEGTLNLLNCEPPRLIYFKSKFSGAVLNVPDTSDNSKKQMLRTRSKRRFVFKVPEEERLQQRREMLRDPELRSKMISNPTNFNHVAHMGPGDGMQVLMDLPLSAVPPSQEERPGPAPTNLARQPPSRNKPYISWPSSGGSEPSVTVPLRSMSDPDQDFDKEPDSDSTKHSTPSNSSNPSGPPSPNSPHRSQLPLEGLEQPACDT

Turning to BDP9066, the EC50 (as a rule, the concentration at which the effect is half-maximal) on MRCKB (CDC42BPB) turned out to be 72 nM; at MRCKA (CDC42BPA), 65 nM.
